Source: patent US20230174493A1, “Solid Dispersions of Amorphous 3,4-Diphenyl-4,5-Dihydro-1H-Pyrazole Derivatives, Compositions Comprising them and Uses Thereof as Cannabinoid CB1 Receptor Inhibitors” (INVERSAGO PHARMA INC., priority 2020, published 2023)

What was measured:
[1] = Pharmacokinetic properties in Beagle dogs, single oral dose compared with intravenous administration; settings: dog, in vivo, 2 mg/kg, fasted
Procedure: Pharmacokinetic properties were measured in Beagle dogs. Administration was done orally and compared with intravenous administration (2 mg/kg, in DMSO/tetraglycol/PEG400/water, 10:20:25:45). Each formulation was tested as a single dose on three (3) animals except for F6(b), which was tested on five (5) animals. Dogs were sampled at times 0, 1 h, 4 h, 8 h, 12 h, 24 h, 36 h, 48 h, and 72 h to give full time-concentration profiles. All tests were carried out with fasted dogs except test on normal dogs using F-SEDDS, which was carried on fed dogs. The results are as presented as an average between the tested animals.

[2] = Solubility of crystalline form (development efforts)
[3] = Oral bioavailability of crystalline form (development efforts)

In the case of `C/C(N)=N/C(=N\S(=O)(=O)c1ccc(C(F)(F)F)cc1)N1C[C@H](c2ccccc2)C(c2ccc(Cl)cc2)=N1` [Compound 1], the C0 ([1]; i.v. 2 mg/kg in DMSO/tetraglycol/PEG400/water 10:20:25:45, Normal dogs (about 11 kg)) is reported as 2220 ng/mL, the C0 ([1]; i.v. 2 mg/kg in DMSO/tetraglycol/PEG400/water 10:20:25:45, Small dogs (about 7.5 kg)) is reported as 1820 ng/mL and the AUC(0-inf) ([1]; i.v. 2 mg/kg, Normal dogs (about 11 kg)) is reported as 15400 ng·h/mL. The half-life ([1]; i.v. 2 mg/kg, Normal dogs (about 11 kg), read-out: T½ (converted)) was 5.88 h, the Solubility [2] was “essentially insoluble” and the Oral bioavailability [3] was “very poor oral bioavailability”.
